4 molecules from paper PMC3478282, “Probing the Putative Active Site of YjdL: An Unusual Proton-Coupled Oligopeptide Transporter from E. coli” (PLoS ONE, 2012) can be followed below.

Assay type in all cases: cell-based, E. coli
For one experiment, the target named is T1, YjdL Tyr21Phe (Escherichia coli, UniProt P39276, Y21F).
T1 construct: expressed in transfected cells; host or cells: E. coli BL21(DE3)pLysS, pTTQ18-yjdL mutant (QuikChange)
T1 sequence (P39276 1-485 Y21F): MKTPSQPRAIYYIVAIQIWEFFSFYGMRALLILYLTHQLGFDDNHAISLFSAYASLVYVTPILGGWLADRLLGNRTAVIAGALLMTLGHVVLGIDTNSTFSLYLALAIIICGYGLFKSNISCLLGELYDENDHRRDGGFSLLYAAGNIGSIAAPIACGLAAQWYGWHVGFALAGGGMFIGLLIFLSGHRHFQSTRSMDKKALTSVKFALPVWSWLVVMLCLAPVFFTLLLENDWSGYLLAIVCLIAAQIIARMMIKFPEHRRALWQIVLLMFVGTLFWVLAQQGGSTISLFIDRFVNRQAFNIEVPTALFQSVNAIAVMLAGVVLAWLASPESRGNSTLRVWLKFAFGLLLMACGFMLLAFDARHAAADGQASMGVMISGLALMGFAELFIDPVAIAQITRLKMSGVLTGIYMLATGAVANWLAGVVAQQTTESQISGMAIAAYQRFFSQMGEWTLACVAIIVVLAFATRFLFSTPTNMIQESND
The experiment in a line: β-Ala-Lys(AMCA) uptake and inhibition assay, YjdL Tyr21Phe. Particulars: 0.2 mM β-Ala-Lys(AMCA), 5 min incubation, pH 6.5; ±SEM, n≥3. Here is the method: (§1) Plasmids were transformed into E. coli BL21(DE3)pLysS cells by heat shock and transformants were selected on agar plates containing 100 µg/mL ampicillin and 34 µg/mL chloramphenicol. Single transformants were inoculated into 2 mL LB-media with antibiotics as above and grown overnight. The cultures were diluted 1∶50 in 5 mL LB-media with antibiotics as above, and at an OD600 of 0.5–0.8 protein expression was induced by the addition of 1 mM isopropyl β-D-1-thiogalactopyranoside (IPTG). The cells were harvested after three hours of induction by centrifugation and resuspended in uptake buffer (50 mM MES pH 6.5, 140 mM NaCl, 5.4 mM KCl, 1.8 mM CaCl2, 0.8 mM MgSO4, and 5 mM glucose).
(§2) Uptake assays were performed as previously described, [20]. In a final assay volume of 100 µL; 0.2 mM β-Ala-Lys-N-7-amino-4-methylcoumarin-3-acetic acid (β-Ala-Lys(AMCA), Biotrend) (10 µL) and various concentrations of ligands (purchased from Bachem or Sigma-Aldrich) or uptake buffer (50 µL) were incubated with bacterial cell suspension (OD600 = 10, 40 µL) at 37°C. After 5 min, the uptake was stopped by addition of 500 µL ice-cold uptake buffer followed by immediate centrifugation and washing twice in ice-cold uptake buffer. Finally the cell pellet was resuspended in 100 µL uptake buffer, and the uptake was quantified by fluorescence measurements (excitation at 340 nm and emission at 460 nm) on a Safire 2 fluorimeter. Non-specific uptake was measured as described above on IPTG-induced E. coli BL21(DE3)pLysS cells harboring the empty pTTQ18 vector. All uptake assay experiments were reproduced at least three times independently and data analyses were performed using GraphPad Prism ver. 5.

For the next experiment, the target named is T2, YjdL Tyr58Phe (Escherichia coli, UniProt P39276, Y58F).
T2 construct: expressed in transfected cells; host or cells: E. coli BL21(DE3)pLysS, pTTQ18-yjdL mutant (QuikChange)
T2 sequence (P39276 1-485 Y58F): T1 sequence (P39276 1-485 Y21F) with F21Y, Y58F
Briefly: β-Ala-Lys(AMCA) uptake and inhibition assay, YjdL Tyr58Phe. Particulars: for IC50: 0.5 mM β-Ala-Lys(AMCA), 15 min incubation, pH 6.5, ±SEM, n≥3, read-out: IC50 (inhibition of β-Ala-Lys(AMCA) uptake), Tyr58Phe b. Here is the method: as §1, §2

In another experiment the target is T3, YjdL Tyr113Phe (Escherichia coli, UniProt P39276, Y113F).
T3 construct: expressed in transfected cells; host or cells: E. coli BL21(DE3)pLysS, pTTQ18-yjdL mutant (QuikChange)
T3 sequence (P39276 1-485 Y113F): T1 sequence (P39276 1-485 Y21F) with F21Y, Y113F
Briefly: β-Ala-Lys(AMCA) uptake and inhibition assay, YjdL Tyr113Phe. Particulars: for IC50: 0.2 mM β-Ala-Lys(AMCA), 5 min incubation, pH 6.5, ±SEM, n≥3. Here is the method:
as §1, §2

Another experiment concerns the target T4, YjdL Trp278Phe (Escherichia coli, UniProt P39276, W278F).
T4 construct: host or cells: E. coli BL21(DE3)pLysS
T4 sequence (P39276 1-485 W278F): T1 sequence (P39276 1-485 Y21F) with F21Y, W278F
The experiment in a line: β-Ala-Lys(AMCA) uptake and inhibition assay, YjdL Trp278Phe. Particulars: 0.2 mM β-Ala-Lys(AMCA), 5 min incubation, pH 6.5; ±SEM, n≥3. Here is the method:
as §1, §2

Where [1] appears, read: 0.2 mM, 5 min, pH 6.5 (Figure 3).

Numbering of substitutions follows the chain as printed. Residues, ends and D or L forms follow the SMILES beside them. Some results are limits rather than exact numbers.

As usually defined, the IC50 is the point on the concentration scale where inhibition reaches its midpoint. With `C[C@H](N)C(=O)N[C@@H](C)C(=O)O` [Ala-Ala] (H-Ala-Ala-OH), the IC50 stood at 4500 ± 300 µM at YjdL Tyr21Phe, 28100 ± 5000 µM on YjdL Tyr58Phe, 1900 ± 100 µM against YjdL Tyr113Phe and 9900 ± 1000 µM on YjdL Trp278Phe.

“β-Ala-Lys-N-7-amino-4-methylcoumarin-3-acetic acid [β-Ala-Lys(AMCA)]”: the “β-Ala-Lys(AMCA) uptake level, YjdL Tyr58Phe” value on YjdL Tyr58Phe (setting [1]) is listed as 7%. In addition, on YjdL Tyr113Phe (setting [1]), the “increase of β-Ala-Lys(AMCA) uptake, YjdL Tyr113Phe” value is reported as ~2 fold.

Turning to `C[C@H](NC(=O)[C@@H](N)Cc1ccc(O)cc1)C(=O)O` [Tyr-Ala], the IC50 amounted to 4700 ± 800 µM at YjdL Tyr21Phe, 24100 ± 2800 µM on YjdL Tyr58Phe, 1300 ± 300 µM at YjdL Tyr113Phe and 2800 ± 400 µM against YjdL Trp278Phe.

Take `C[C@H](N)C(=O)N[C@@H](CCCCN)C(=O)O` [Ala-Lys] (H-Ala-Lys-OH): the half-inhibitory concentration (IC50) is 450 ± 70 µM against YjdL Tyr21Phe, > 50000 µM at YjdL Tyr58Phe, 340 ± 40 µM at YjdL Tyr113Phe and 380 µM against YjdL Trp278Phe.
